Experimental data reported in patent EP0633316A1, “Lys-aminopeptidase PepN from lactobacillus delbruckii ssp. Lactis, nucleic acids coding for it, and its use in fermentation processes” (EUROPEAN ECONOMIC COMMUNITY E.E.C., priority 1993, dated 1995).
Read-outs that look alike come from different tables or passages of the source. Non-standard residues stand in square brackets, D forms with d. Residues, ends and D or L forms follow the SMILES beside them. *: point of attachment. Sta = CC(C)C[C@H](N)[C@@H](O)CC(=O)O; pNA = O=[N+]([O-])c1ccc(N*)cc1; Isovaleryl = CC(C)CC(=O)*

Key:
Type in all cases: biochemical, Lactobacillus delbrückii ssp. lactis
PepN [1] = target: T1, PepN (Lactobacillus delbrueckii subsp. lactis, UniProt P37896); experiment: biochemical; conditions: for activity at 1000 µM: read-out: relative activity
T1 construct: made in house; host or cells: E. coli CM89 (pepN-deficient) harbouring plasmid pUK13
T1 sequence (P37896 1-843): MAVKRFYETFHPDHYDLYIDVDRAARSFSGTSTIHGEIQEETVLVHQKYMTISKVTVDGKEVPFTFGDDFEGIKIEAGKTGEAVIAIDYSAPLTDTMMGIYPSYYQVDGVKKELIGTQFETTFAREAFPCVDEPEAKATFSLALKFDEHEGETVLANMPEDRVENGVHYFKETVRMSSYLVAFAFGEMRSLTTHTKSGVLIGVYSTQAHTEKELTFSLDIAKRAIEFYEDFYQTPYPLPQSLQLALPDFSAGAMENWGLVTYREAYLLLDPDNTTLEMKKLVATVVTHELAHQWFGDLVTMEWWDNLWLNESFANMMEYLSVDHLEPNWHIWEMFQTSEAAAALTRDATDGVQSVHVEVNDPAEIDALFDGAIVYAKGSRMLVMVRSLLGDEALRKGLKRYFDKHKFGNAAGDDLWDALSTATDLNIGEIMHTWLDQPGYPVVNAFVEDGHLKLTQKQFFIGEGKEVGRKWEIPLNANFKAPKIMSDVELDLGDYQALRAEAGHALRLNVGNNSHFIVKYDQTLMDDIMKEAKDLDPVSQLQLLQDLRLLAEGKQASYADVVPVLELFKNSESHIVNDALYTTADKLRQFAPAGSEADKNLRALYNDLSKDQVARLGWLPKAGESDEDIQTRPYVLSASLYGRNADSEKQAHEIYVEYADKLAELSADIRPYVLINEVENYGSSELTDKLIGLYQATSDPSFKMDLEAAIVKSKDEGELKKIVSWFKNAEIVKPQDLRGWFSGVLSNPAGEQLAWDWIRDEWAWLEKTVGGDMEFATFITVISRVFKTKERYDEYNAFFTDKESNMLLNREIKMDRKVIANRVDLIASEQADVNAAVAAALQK
Method: The percentages of relative activity indicated above, correspond to residual activities after addition of the inhibitor as compared with the control without inhibitor. The conditions and methods for determination are taken from "Proteolytic enzymes, a practical approach, Beynon R.J. and Bond J.S., Oxford University Press 1989." (Chapter 4, Determination of protease mechanism, Ben M. Dunn).
(§1) For characterization of the enzyme the p-nitroanilide subtrates (Bachem) were dissolved in water and added to the reaction mixture [Tris-HCl 10 mM, pH 8.0, and varying amounts of purified enzyme (1-200 ng)] to a concentration of 1 mM in a volume of 250 µl. Release of p-nitroaniline was measured after a 10 min incubation at 37°C at […] in a LKB Ultrospec plus spectrophotometer. For rapid screening of active fractions during purification of the enzyme, samples were prepared in micro titer plates and measured in a BIORAD model 2550 EIA reader.
To study the mechanism of enzyme action, the inhibitors phenylmethansulphonyl fluoride (PMSF) at a concentration of 1 mM, pepstatin A at 1 µg/ml, L-trans-epoxysuccinyl-leucylamide(4-guanidino)-butane (E-64) at 0.1 mM, and 1,10-phenanthroline or EDTA at 1 mM were added to the enzyme and incubated for 30 min at 37°C. The substrate lys-p-nitroanilide was added and activity was measured spectrophotometrically by the release of p-nitroaniline.

PepN [2] = target: T1, PepN; experiment: Substrate specificity of purified PepN against p-nitroanilide substrates; conditions: p-nitroanilide substrates 1 mM, 10 min at 37°C, Tris-HCl 10 mM pH 8.0
Method: as §1

[3] = substrate: NCCCC[C@H](N)C(=O)Nc1ccc([N+](=O)[O-])cc1; experiment: as above; conditions: other: Lineweaver-Burk plot; pH 8.0; 37.0 °C
Method: as §1

[4] = PMSF 1 mM, pepstatin A 1 µg/ml, E-64 0.1 mM, 1,10-phenanthroline or EDTA 1 mM, 30 min at 37°C, substrate lys-p-nitroanilide

Molecule: O=C(O)CN(CCN(CC(=O)O)CC(=O)O)CC(=O)O [EDTA]
- effect on enzyme activity (PepN [1]): full inhibition
- activity at 1000 µM (PepN [1]): 3%

Molecule: O=S(=O)(F)Cc1ccccc1 [PMSF, phenylmethansulphonyl fluoride]
- effect on enzyme activity (PepN [1]; [4]): no effect

Molecule: CC(C)CC(=O)N[C@H](C(=O)N[C@H](C(=O)N[C@@H](CC(C)C)[C@@H](O)CC(=O)N[C@@H](C)C(=O)N[C@@H](CC(C)C)[C@@H](O)CC(=O)O)C(C)C)C(C)C [Pepstatin A, pepstatin A] (Isovaleryl-VV[Sta]A[Sta]-OH)
- effect on enzyme activity (PepN [1]; [4]): no effect

Molecule: C[C@H](N)C(=O)N1CCC[C@H]1C(=O)Nc1ccc([N+](=O)[O-])cc1 [Ala-Pro-pNA] (H-Ala-Pro-pNA)
- relative activity (%) (PepN [2]): 0%

Molecule: NCC(=O)Nc1ccc([N+](=O)[O-])cc1 [Gly-pNA]
- relative activity (%) (PepN [2]): 1%

Molecule: CC(C)CC(NC(=O)C1OC1C(=O)O)C(=O)NCCCCN=C(N)N [E-64, L-trans-epoxysuccinyl-leucylamide(4-guanidino)-butane]
- effect on enzyme activity (PepN [1]; [4]): no effect

Molecule: N[C@@H](Cc1ccccc1)C(=O)Nc1ccc([N+](=O)[O-])cc1 [Phe-pNA]
- relative activity (%) (PepN [2]): 8%

Molecule: c1cnc2c(c1)ccc1cccnc12 [Phenanthroline, 1,10-phenanthroline]
- effect on enzyme activity (PepN [1]; [4]): full inhibition
- activity at 1000 µM (PepN [1]; end concentration 1 mM, residual activity after addition of the inhibitor compared with control without inhibitor): 4%

Molecule: O=C(Nc1ccc([N+](=O)[O-])cc1)[C@@H]1CCCN1 [Pro-pNA]
- relative activity (%) (PepN [2]): 2%

Molecule: N[C@@H](Cc1ccc(O)cc1)C(=O)Nc1ccc([N+](=O)[O-])cc1 [Tyr-pNA]
- relative activity (%) (PepN [2]): 2%

Molecule: C[C@H](N)C(=O)Nc1ccc([N+](=O)[O-])cc1 [Ala-pNA]
- relative activity (%) (PepN [2]): 12%

Molecule: NCCCC[C@H](N)C(=O)Nc1ccc([N+](=O)[O-])cc1 [Lys-pNA, lys-p-nitroanilide]
- relative activity (%) (PepN [2]): 100%

Molecule: CC(C)C[C@H](N)C(=O)Nc1ccc([N+](=O)[O-])cc1 [Leu-pNA]
- relative activity (%) (PepN [2]): 19%

B1: PepN (Lactobacillus delbrueckii subsp. lactis) (protein)
chain: MAVKRFYETFHPDHYDLYIDVDRAARSFSGTSTIHGEIQEETVLVHQKYMTISKVTVDGKEVPFTFGDDFEGIKIEAGKTGEAVIAIDYSAPLTDTMMGIYPSYYQVDGVKKELIGTQFETTFAREAFPCVDEPEAKATFSLALKFDEHEGETVLANMPEDRVENGVHYFKETVRMSSYLVAFAFGEMRSLTTHTKSGVLIGVYSTQAHTEKELTFSLDIAKRAIEFYEDFYQTPYPLPQSLQLALPDFSAGAMENWGLVTYREAYLLLDPDNTTLEMKKLVATVVTHELAHQWFGDLVTMEWWDNLWLNESFANMMEYLSVDHLEPNWHIWEMFQTSEAAAALTRDATDGVQSVHVEVNDPAEIDALFDGAIVYAKGSRMLVMVRSLLGDEALRKGLKRYFDKHKFGNAAGDDLWDALSTATDLNIGEIMHTWLDQPGYPVVNAFVEDGHLKLTQKQFFIGEGKEVGRKWEIPLNANFKAPKIMSDVELDLGDYQALRAEAGHALRLNVGNNSHFIVKYDQTLMDDIMKEAKDLDPVSQLQLLQDLRLLAEGKQASYADVVPVLELFKNSESHIVNDALYTTADKLRQFAPAGSEADKNLRALYNDLSKDQVARLGWLPKAGESDEDIQTRPYVLSASLYGRNADSEKQAHEIYVEYADKLAELSADIRPYVLINEVENYGSSELTDKLIGLYQATSDPSFKMDLEAAIVKSKDEGELKKIVSWFKNAEIVKPQDLRGWFSGVLSNPAGEQLAWDWIRDEWAWLEKTVGGDMEFATFITVISRVFKTKERYDEYNAFFTDKESNMLLNREIKMDRKVIANRVDLIASEQADVNAAVAAALQK
notes: made in house; host or cells: E. coli CM89 (pepN-deficient) harbouring plasmid pUK13
- Km [3]: 70 µM
